Data on 46 molecules can be found in PubChem BioAssay AID549 (SRMLSC, 2006).

Activity calls are given as the source filed them.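 Rule for the calls: active = clearly stronger inhibition of phosphomevalonate kinase than of the coupling enzymes alone in a parallel counterscreen; inactive = the rest.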

Assay [1] is described as follows: phosphomevalonate kinase inhibition IC50 – biochemical, mevalonate pathway, coupling enzyme counter-screen, dose response (AID 549). As to conditions: PMK enzyme, PK/LDH coupled NADH absorbance 340 nm; measured here: coupling enzymes counter-screen (hexokinase). For orientation: The purpose of a counterscreen is to sort out artefacts and off-target activity.
In assay [2] the target is phosphomevalonate kinase (Streptococcus pneumoniae D39). Described as above. To be noted: PMK enzyme, PK/LDH coupled NADH absorbance 340 nm.

The IC50 is the point on the concentration scale where inhibition reaches its midpoint. The molecule `COc1cccc(OC)c1-c1nn2c(-c3cc(-c4ccccc4)n[nH]3)nnc2s1` gave an IC50 in assay [1] of 42.7 µM. Also, the IC50 result in assay [2] was “inactive”. As to `CCOC(=O)N1C(=O)c2cc(OC)ccc2S1(=O)=O`, in assay [1], the IC50 worked out at 18.6 µM. The IC50 result in assay [2] is “inactive”. The like results for `CCOC(=O)C1=C(C)NC(=O)NC1c1c(C)nn(-c2ccccc2)c1Cl` (stereo unspecified) were, in that order, 3.54 µM and “inactive”. The like results for `O=c1c2ccccc2[se]n1-c1ccccc1` were, in that order, 73.1 µM and “inactive”.

The molecule `CCOC(=O)c1cc2c(=O)n3cccc(C)c3nc2n(CCCOC)c1=NC(=O)c1cccnc1` came in with an IC50 in assay [1] of 13.6 µM. Besides, in assay [2], the IC50 result is “inactive”. In the case of `Cn1nnnc1Sc1ncnc2scc(-c3ccc(F)cc3)c12`, the result in assay [2] was inactive. On the same count and under the same terms, in the case of `Cc1cccc(-n2nc3c(c2NC(=O)c2ccco2)CSC3)c1C` it was “inactive”. Same read-out and setting: next, `COc1ccc(N2CCN(C(c3ccco3)c3sc4nc(C)nn4c3O)CC2)cc1` (stereo unspecified): “inactive”. Still for that read-out and setting: in the case of `COc1cc2[nH]c(=O)n(CCC(=O)NC3CCN(Cc4ccccc4)CC3)c(=O)c2cc1OC` it was “inactive”; in that of `CCOC(=O)c1ccc(NC(=O)CSc2nc(C)cc(=O)[nH]2)cc1`, “inactive”. For `CC(Sc1ncc(C#N)c(N)n1)C(=O)Nc1ccccc1` (stereo unspecified), the outcome in assay [2] was inactive.

In the case of `COc1ccc(C(=O)Nc2cccc3c2C(=O)NC3=O)cc1S(=O)(=O)N1CCOCC1`, the result in assay [2] was inactive.

Regarding `Cc1ccc(-c2noc(CCC(=O)NCCN3CCc4ccccc4C3)n2)cc1`, in assay [2], the result was inactive. Still for that read-out and setting: in the case of `Cc1nc2ccc3nc(NC(=O)c4ccco4)sc3c2s1` it was “inactive”. On the same count and under the same terms, next, `COc1ccccc1NC(=O)C1=C(C)NC2=C(C(=O)CCC2)C1c1ccc(C)o1` (stereo unspecified): “inactive”; `CCOC(=O)C1=C(C)Nc2ccccc2N=C1NC(=O)CCCN1C(=O)c2ccccc2C1=O`: “inactive”. Consider `O=C(NCCCNC(=O)c1ccccn1)c1ccccn1`, for which, in assay [2], the outcome was inactive.

Consider `COC(=O)C1=C(C)OC(N)=C(C#N)C1c1cc(OC)c(OCC(N)=O)cc1Cl` (stereo unspecified), for which the outcome in assay [2] was inactive.

For `Cn1nc(CC(=O)Nc2ncc(Br)s2)c2ccccc2c1=O`, in assay [2], the result was inactive. Same read-out and setting: in the case of `OCCNCC1(O)C2CC3CC(C2)CC1C3` (stereo unspecified) it was “inactive”; in that of `CCC(=O)N(Cc1ccco1)c1nc(-c2ccccc2)cs1`, “inactive”; in that of `CCOCCCNC(=O)C1CCN(S(=O)(=O)N2CC(C)CC(C)C2)CC1` (stereo unspecified), “inactive”. On the same count and under the same terms, next, `CCN=c1sc(C(=O)NCCc2ccccc2)cc(=O)n1CC`: “inactive”; `O=C(NCC1CCCO1)C1CC(=O)N(C2CCCCCC2)C1` (stereo unspecified): “inactive”. The same measure, in the same setting: in the case of `COc1ccc(NC(=O)N(C2CCCCC2)C(C)c2ccco2)c(OC)c1` (stereo unspecified) it was “inactive”; in that of `CCOC(=O)C1=C(O)C(=O)N(c2ccc(S(N)(=O)=O)cc2)C1c1ccc(OC)cc1` (stereo unspecified), “inactive”; in that of `CCOCCCNC(=O)C1CCN(S(=O)(=O)CC)CC1`, “inactive”. For `CCn1c2ccccc2c2cc(CN3CCN(C(=O)c4ccco4)CC3)ccc21`, the result in assay [2] was inactive.

In the case of `CS(=O)(=O)N1CCCC(C(=O)NCc2cccs2)C1` (stereo unspecified), the result in assay [2] was inactive. Still for that read-out and setting: in the case of `O=C(Nc1ccc(F)cc1)N(CCCN1CCOCC1)Cc1cc2cc3c(cc2[nH]c1=O)OCO3` it was “inactive”.

On to `COc1ccc(CNC(=O)C2CCN(S(=O)(=O)c3cccc4cccnc34)CC2)cc1`, for which the result in assay [2] was inactive. Turning to `CCc1nnc(NC(=O)c2cccs2)s1`, the outcome in assay [2] was inactive. Still for that read-out and setting: in the case of `CS(=O)(=O)N(CC(=O)N1CCN(c2ccccc2)CC1)C1CCCCC1` it was “inactive”; in that of `CCC(C)(C)NC(=O)C(c1ccccc1F)N(Cc1ccco1)C(=O)c1csnn1` (stereo unspecified), “inactive”. Regarding `O=C(C1CCN(Cc2ccc(OCc3ccccc3)cc2)CC1)N1CCCC1`, the outcome in assay [2] was inactive.

Consider `CCCn1cnc2c(cnn2-c2ccc(F)cc2)c1=O`, for which, in assay [2], the outcome was inactive. The same measure, in the same setting: in the case of `CS(=O)(=O)N1CCCC(C(=O)NCc2ccccn2)C1` (stereo unspecified) it was “inactive”; in that of `CCOC(=O)CC(=O)CSc1nnc2c(n1)[nH]c1ccccc12`, “inactive”.

Take `COC(=O)c1cc(=O)nc2sccn12`: the outcome in assay [2] was inactive. As for `CC1(C)CC(C)(O)P(=O)(c2ccccc2)O1` (stereo unspecified), the result in assay [2] was inactive. The same measure, in the same setting: next, `CC(=O)NC1N=C(C)N(c2ccccc2)C1=O` (stereo unspecified): “inactive”; `O=C(Nc1c(-c2ccccc2)nc2sccn12)c1ccccc1`: “inactive”; `CCCN(C(=O)c1ccccc1N)c1c(C)n(C)n(-c2ccccc2)c1=O`: “inactive”. On the same count and under the same terms, in the case of `CCN(CC)CCSc1nc(O)c(C(C)C)c(=O)[nH]1` it was “inactive”; in that of `CCC1CCCCN1CCCNC(=O)Cn1nc(-c2ccccc2)ccc1=O` (stereo unspecified), “inactive”; in that of `Cc1cc(C)cc(CC2CC(=O)N(c3nc(C)cc(C)n3)C2=O)c1` (stereo unspecified), “inactive”.
